Consider one substance from patent publication US10363229B2, “Methods and compositions for the treatment of cancer” (priority 2009, dated 2019).

One experiment has as its system melanoma cells. As to the kind of experiment: Soft agar assay for colony formation. In kind it is cell-based, mouse. The note with it: 2% methyl sulfone; control hundreds of colonies. The protocol:
Cells were plated on 8-35 mm plates that contained base agar with and without 2% methyl sulfone. To make base agar, 1% agar (DNA grade; Difco Bacto Agar; Becton Dickenson and Company, Sparks, Md.), was mixed in water at room temperature, melted in a microwave, and cooled to 40° C. before using. For drug plates, 1% agar was combined (1:1) with 4% methyl sulfone in 2×RPMI medium with sodium bicarbonate supplemented with 10% FBS and 5% penicillin/streptomycin. For control plates, 1% agar was combined (1:1) with 2×RMPI medium. Agar +/−2% methyl sulfone was added to appropriate 35 mm tissue culture plates and stored overnight at 4° C. The next day top agar and cells were placed on top of the base agar. Top agar was made with 0.66% agar in water. The agar was melted in a microwave, cooled, and stored at 40° C. 2×RPMI medium and 4% methyl sulfone was also stored at 40° C. Cells were trypsinized and counted for a final concentration of 5×10^3 cells/plate. Cell counts were adjusted to 2×10^5 cells/ml and 0.05 ml of the cell suspension was added to 15 ml centrifuge tubes (2 each). Base agar plates were removed from 4° C. and allowed to warm to room temperature for approximately 30 minutes prior to plating. […] Colonies were photographed and counted with a dissecting microscope. […]

For experiment [1], the system named is microtubules in melanoma cells. As to the kind of experiment: Immunofluorescence of microtubules, incl. vinblastine stability test. In kind it is cell-based, mouse. The protocol:
Cells were plated in 6-100 mm tissue culture plates, each containing 1 polylysine-coated 10-well slide, or plated onto polylysine-coated coverslips. Once cells were approximately 50% confluent, 2% methyl sulfone was added to cells for 10, 30, 60, 90, and 120 minutes. At each time point cells were placed in microtubule stabilizing buffer ( ) for 10 minutes followed by incubation in −20° C. methanol for 5 minutes. Cells were washed twice in 0.1% Triton X-100 in PBS at room temperature, then incubated with mouse monoclonal anti-alpha-tubulin antibody (Santa Cruz Biotech, Calif.; diluted 1/200 in 1% BSA/PBS) for 1.5 hours. Cells were washed 5 times in 0.1% Triton X-100/PBS, 3 minutes each. Cells were incubated with secondary antibody (Alexa Fluor 568 rabbit anti-mouse antibody; diluted 1/100 in 1%/PBS) for 30 minutes in the dark. Cells were washed five times in 0.1% Triton X-100/PBS, three minutes each. Cells were washed two times in PBS at 2 minute intervals and incubated with DAPI (1 μg/ml in PBS) for 5 minutes at room temperature and in the dark. Cells were washed in PBS for one minute. SlowFade was added to glass slides, coverslips were placed cell side down and sealed with nail polish. Microtubules were viewed at the Center for Cell Analysis and Modeling, University of Connecticut Health Center, Farmington, Conn., with an Axioplan CCD Microscope equipped with a 40×1.3 NA FL objective lens and Photometrics PXL-EEV37 high speed digital cooled CCD camera via Metamorph image acquisition and analysis software (Universal Imaging Corp., Downington, Pa.).
One assay to test stability of microtubules is to give cells increasing concentrations of a microtubule-disassembly drug and use immunofluorescence microscopy to assess microtubule lengths (Caron et al). A higher concentration of drug will be required to disassemble the more stabilized microtubules. We used different concentrations of the anti-microtubule drug, vinblastine, to assess microtubule stability in control cells and cells incubated with 2% methyl sulfone.

As to methyl sulfone, the “colony formation on soft agar (anchorage-independent growth)” value in the experiment with melanoma cells is “no colony formation”. The “time to microtubule disassembly after adding drug” value in experiment [1] (2% methyl sulfone) is at most 10 min. Also, in experiment [1] (2% methyl sulfone plus 10^−7 M vinblastine), the “microtubules in the presence of vinblastine (stability)” value was “clearly visible”. Further, the “pattern of microtubule reassembly” value in experiment [1] (2% methyl sulfone, over the next two hours) was “re-appeared in an orderly pattern”.
